Data reported in the supplement of paper PMC10307832.

Experiments:
Assay in all cases: relative viability (nuclei count vs DMSO), 5 days (fraction); higher = more cells survive
R406 + OSI-027 = compound: COc1cc(Nc2ncc(F)c(Nc3ccc4c(n3)NC(=O)C(C)(C)O4)n2)cc(OC)c1OC [R406] + COc1cccc2cc(-c3nc([C@H]4CC[C@H](C(=O)O)CC4)n4ncnc(N)c34)[nH]c12 [OSI-027] (partner 0.5 µM)
Method in brief: (§1)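 One day after seeding in 1536-well plates, lung cancer cell lines were dosed by pin tool. Dosing was either single-drug or a fixed anchor-drug dose plus five library-drug doses (not always all listed) in √10 steps. After 5 days, nuclei were stained in one fix-and-stain step and counted on 4× images, and relative viability is the nuclei count of treated wells over that of vehicle wells, given as the median of duplicate plates.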

R406 + Vorinostat = compound: COc1cc(Nc2ncc(F)c(Nc3ccc4c(n3)NC(=O)C(C)(C)O4)n2)cc(OC)c1OC [R406] + O=C(CCCCCCC(=O)Nc1ccccc1)NO [Vorinostat] (partner 1 µM)
Method in brief: as §1

Daporinad + Navitoclax = compound: O=C(/C=C/c1cccnc1)NCCCCC1CCN(C(=O)c2ccccc2)CC1 [Daporinad] + CC1(C)CCC(c2ccc(Cl)cc2)=C(CN2CCN(c3ccc(C(=O)NS(=O)(=O)c4ccc(N[C@H](CCN5CCOCC5)CSc5ccccc5)c(S(=O)(=O)C(F)(F)F)c4)cc3)CC2)C1 [Navitoclax] (partner 0.5 µM)
Method in brief: as §1

Daporinad + Linsitinib = compound: O=C(/C=C/c1cccnc1)NCCCCC1CCN(C(=O)c2ccccc2)CC1 [Daporinad] + C[C@]1(O)C[C@@H](c2nc(-c3ccc4ccc(-c5ccccc5)nc4c3)c3c(N)nccn32)C1 [Linsitinib] (partner 1 µM)
Method in brief: as §1

| Cell Line | relative viability (R406 + OSI-027; first compound 0.08 µM) | relative viability (R406 + OSI-027; first compound 0.253 µM) | relative viability (R406 + OSI-027; first compound 0.8 µM) | relative viability (R406 + OSI-027; first compound 2.53 µM) | relative viability (R406 + OSI-027; first compound 8 µM) | relative viability (R406 + Vorinostat; first compound 0.08 µM) | relative viability (R406 + Vorinostat; first compound 0.253 µM) | relative viability (R406 + Vorinostat; first compound 0.8 µM) | relative viability (R406 + Vorinostat; first compound 2.53 µM) | relative viability (R406 + Vorinostat; first compound 8 µM) | relative viability (Daporinad + Navitoclax; first compound 0.0005 µM) | relative viability (Daporinad + Navitoclax; first compound 0.001581 µM) | relative viability (Daporinad + Navitoclax; first compound 0.005 µM) | relative viability (Daporinad + Navitoclax; first compound 0.01581 µM) | relative viability (Daporinad + Linsitinib; first compound 0.0005 µM) | relative viability (Daporinad + Linsitinib; first compound 0.001581 µM) | relative viability (Daporinad + Linsitinib; first compound 0.005 µM) | relative viability (Daporinad + Linsitinib; first compound 0.01581 µM) |
| --- | --- | --- | --- | --- | --- | --- | --- | --- | --- | --- | --- | --- | --- | --- | --- | --- | --- | --- |
| SK-MES-1 | 0.588 | 0.649 | 0.714 | 0.341 | 0.13 | 1.05 | 1.14 | 1.21 | 0.996 | 0.158 | 1.27 | 1.16 | 1.31 | 0.852 | 1.1 | 1.13 | 1.17 | 0.905 |
| SW 1573 | 0.603 | 0.783 | 0.869 | 0.493 | 0.224 | 0.57 | 1.18 | 0.947 | 0.658 | 0.305 | 0.897 | 0.991 | 0.755 | 0.457 | 0.889 | 0.848 | 0.747 | 0.551 |
